# Like-named read-outs stand apart in the source and are kept apart here.
# What was measured:
# Escherichia coli EC14 = assay: standard agar-dilution MIC assay; format: cell-based; conditions: agar-dilution, read-out: MIC
# Procedure: (§1) The MIC's in Table III were determined by standard agar-dilution assays. The MIC's in Table IV were obtained using conventional brothdilution microtiter tests.
# [1] = tested on: Haemophilus influenzae 76; assay: standard agar-dilution MIC assay; format: cell-based; conditions: Haemophilus influenzae, 76
# Procedure: as §1
# [2] = tested on: Haemophilus influenzae C.L.; assay: standard agar-dilution MIC assay; format: cell-based; conditions: Haemophilus influenzae
# Procedure: as §1
# [3] = tested on: Klebsiella pneumoniae X68; assay: standard agar-dilution MIC assay; format: cell-based; conditions: Klebsiella pneumoniae, X68; agar-dilution; read-out: MIC
# Procedure: as §1
# [4] = tested on: Pseudomonas aeruginosa X239; assay: standard agar-dilution MIC assay; format: cell-based; conditions: Pseudomonas aeruginosa, X239; agar-dilution; read-out: MIC
# Procedure: as §1
# [5] = tested on: Staphylococcus aureus V41; assay: standard agar-dilution MIC assay; format: cell-based; conditions: Staphylococcus aureus, V41
# Procedure: as §1
# [6] = tested on: Staphylococcus aureus X1.1; assay: standard agar-dilution MIC assay; format: cell-based; conditions: Staphylococcus aureus, X1.1
# Procedure: as §1
# [7] = tested on: Staphylococcus aureus X400; assay: standard agar-dilution MIC assay; format: cell-based; conditions: Staphylococcus aureus, X400
# Procedure: as §1
# [8] = tested on: Staphylococcus epidermidis 222; assay: standard agar-dilution MIC assay; format: cell-based; conditions: Staphylococcus epidermidis, 222
# Procedure: as §1
# [9] = tested on: Staphylococcus epidermidis EPI1; assay: standard agar-dilution MIC assay; format: cell-based; conditions: Staphylococcus epidermidis, EPI1
# Procedure: as §1
# [10] = tested on: Streptococcus Group D 9960; assay: standard agar-dilution MIC assay; format: cell-based; conditions: GROUPD9960, read-out: MIC
# Procedure: as §1
# [11] = tested on: Streptococcus Group D X66; assay: standard agar-dilution MIC assay; format: cell-based; conditions: read-out: MIC
# Procedure: as §1
# [12] = tested on: Streptococcus pyogenes C203; assay: standard agar-dilution MIC assay; format: cell-based; conditions: Streptococcus pyogenes, C203
# Procedure: as §1
# [13] = tested on: Staphylococcus aureus S13E; assay: microbe, parasite or virus in culture; format: cell-based; conditions: Staphylococcus aureus, S13E
# Procedure: as §1
# [14] = tested on: Streptococcus pneumoniae Park I; assay: microbe, parasite or virus in culture; format: cell-based; conditions: Streptococcus pneumoniae
# Procedure: as §1
# [15] = tested on: Bordetella bronchiseptica; assay: broth-dilution microtiter MIC test; format: cell-based; conditions: Bordetella bronchiseptica; broth-dilution microtiter; read-out: MIC
# Procedure: as §1
# [16] = tested on: Mycoplasma gallisepticum 15E; assay: broth-dilution microtiter MIC test; format: cell-based; conditions: Mycoplasmoides gallisepticum, 15E
# Procedure: as §1
# [17] = tested on: Mycoplasma gallisepticum 29C; assay: broth-dilution microtiter MIC test; format: cell-based; conditions: Mycoplasmoides gallisepticum, 29C
# Procedure: as §1
# [18] = tested on: Mycoplasma gallisepticum 36H; assay: broth-dilution microtiter MIC test; format: cell-based; conditions: Mycoplasmoides gallisepticum, 36H
# Procedure: as §1
# [19] = tested on: Mycoplasma hyopneumoniae S5972; assay: broth-dilution microtiter MIC test; format: cell-based; conditions: Mesomycoplasma hyopneumoniae, S5972
# Procedure: as §1
# Mycoplasma hyorhinis 29E = assay: broth-dilution microtiter MIC test; format: cell-based; conditions: Mycoplasma, 29E
# Procedure: as §1
# Mycoplasma synoviae 40A = assay: broth-dilution microtiter MIC test; format: cell-based; conditions: Mycoplasmopsis synoviae, 40A
# Procedure: as §1
# [20] = tested on: Pasteurella hemolytica 22C; assay: broth-dilution microtiter MIC test; format: cell-based; conditions: Pasteurella, 22C
# Procedure: as §1
# [21] = tested on: Pasteurella hemolytica 23C; assay: broth-dilution microtiter MIC test; format: cell-based; conditions: Pasteurella, 23C
# Procedure: as §1
# [22] = tested on: Pasteurella hemolytica 41D; assay: broth-dilution microtiter MIC test; format: cell-based; conditions: Pasteurella, 41D
# Procedure: as §1
# [23] = tested on: Pasteurella multocida 17E; assay: broth-dilution microtiter MIC test; format: cell-based; conditions: Pasteurella multocida, 17E
# Procedure: as §1
# [24] = tested on: Pasteurella multocida 22A; assay: broth-dilution microtiter MIC test; format: cell-based; conditions: Pasteurella multocida, 22A
# Procedure: as §1
# [25] = tested on: Pasteurella multocida 40G; assay: broth-dilution microtiter MIC test; format: cell-based; conditions: Pasteurella multocida, 40G
# Procedure: as §1
# [26] = tested on: Pasteurella multocida 60A; assay: broth-dilution microtiter MIC test; format: cell-based; conditions: Pasteurella multocida, 60A
# Procedure: as §1
# [27] = tested on: Pasteurella multocida 68C; assay: broth-dilution microtiter MIC test; format: cell-based; conditions: Pasteurella multocida, 68C
# Procedure: as §1
# [28] = tested on: Staphylococcus aureus 19C; assay: broth-dilution microtiter MIC test; format: cell-based; conditions: Staphylococcus aureus, 19C
# Procedure: as §1
# Streptococcus sp. 19F = assay: broth-dilution microtiter MIC test; format: cell-based; conditions: Streptococcus, SP.19F
# Procedure: as §1
# [29] = tested on: Streptococcus pyogenes C203; assay: protection of mice experimentally infected with S. pyogenes C203; format: in vivo; conditions: mice, mg/kg × 2, doses given 1 and 4 hours postinfection, read-out: ED50
# In short: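 Mice experimentally infected with S. pyogenes C203 got two doses of test compound, at 1 and 4 h postinfection. The ED50 is the dose in mg/kg (per dose, given twice) that protected 50% of the animals.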
# [30] = tested on: Streptococcus Group D 2041; assay: standard agar-dilution MIC assay; format: cell-based; conditions: GROUPD2041
# Procedure: as §1
# [31] = broth-dilution microtiter, read-out: MIC
SMILES,MIC (Escherichia coli EC14),MIC [2],MIC [3],MIC [4],MIC [6],MIC [9],MIC [11],MIC [13],MIC [15],MIC [17],MIC [20],MIC [21],MIC [22],MIC [23],MIC [24],MIC [25],MIC [26],MIC [28],"ED50 ([29]; C203, Oral)","ED50 ([29]; C203, sc, Subcutaneous)",further results
"CCC1OC(=O)CC(O)C(C)C(OC2OC(C)C(OC3CC(C)(O)C(O)C(C)O3)C(N(C)C)C2O)C(CC=O)CC(C)C(=O)C=CC(C)=CC1COC1OC(C)C2OC(=O)OC2C1OC (stereo not shown) [Compound 49, Macrocin-3'"",4'""-Carbonate Derivative]",> 128 µg/mL,32 µg/mL,> 128 µg/mL,> 128 µg/mL,0.5 µg/mL,1 µg/mL,1 µg/mL,0.5 µg/mL,> 50 µg/mL,0.195 µg/mL,50 µg/mL,25 µg/mL,50 µg/mL,12.5 µg/mL,25 µg/mL,25 µg/mL,25 µg/mL,0.78 µg/mL,85.6 mg/kg,1 mg/kg,"MIC [1]: 16 µg/mL; MIC [5]: 0.5 µg/mL; MIC [7]: 1 µg/mL; MIC [8]: 0.25 µg/mL; MIC [10]: 1 µg/mL; MIC ([12]; agar-dilution, read-out: MIC): 0.12 µg/mL; MIC ([14]; agar-dilution, read-out: MIC): 0.12 µg/mL; MIC [16]: 25 µg/mL; MIC [18, 31]: > 50 µg/mL; MIC [19, 31]: 0.097 µg/mL; MIC (Mycoplasma hyorhinis 29E): 0.78 µg/mL; MIC (Mycoplasma synoviae 40A): 0.195 µg/mL; MIC [27]: 6.25 µg/mL; MIC (Streptococcus sp. 19F): 0.39 µg/mL"
"CCC1OC(=O)CC(O)C(C)C(OC2OC(C)C(O)C(N(C)C)C2O)C(CCOc2ccccc2)CC(C)C(=O)C=CC(C)=CC1COC1OC(C)C=CC1OC (stereo not shown) [Compound 43, 3"",4""-Di(dehydrodeoxy)-20-DH-20-O-phenyl-lactenocin]",> 128 µg/mL,32 µg/mL,> 128 µg/mL,> 128 µg/mL,0.25 µg/mL,0.25 µg/mL,1 µg/mL,0.25 µg/mL,> 50 µg/mL,0.39 µg/mL,50 µg/mL,50 µg/mL,50 µg/mL,25 µg/mL,50 µg/mL,25 µg/mL,25 µg/mL,1.56 µg/mL,77.7 mg/kg,> 10 mg/kg,"MIC ([5]; agar-dilution, Penicillin-resistant strain, read-out: MIC): 0.25 µg/mL; MIC ([7]; agar-dilution, Methicillin-resistant strain, read-out: MIC): 0.25 µg/mL; MIC ([8]; agar-dilution, read-out: MIC): 0.12 µg/mL; MIC [30]: 1 µg/mL; MIC [12]: 0.25 µg/mL; MIC [14]: 0.5 µg/mL; MIC [16]: 50 µg/mL; MIC [18]: 25 µg/mL; MIC [19]: 6.25 µg/mL; MIC [27]: 12.5 µg/mL; MIC (Streptococcus sp. 19F): 0.78 µg/mL"
"CCC1OC(=O)CC(O)C(C)C(OC2OC(C)C(O)C(N(C)C)C2O)C(CC=O)CC(C)C(=O)C=CC(C)=CC1COC1OC(C)C2OC(C)(C)OC2C1OC (stereo not shown) [Compound 55, 3"",4""-Isopropylidene Derivative of Lactenocin]",> 128 µg/mL,16 µg/mL,> 128 µg/mL,> 128 µg/mL,2 µg/mL,2 µg/mL,32 µg/mL,2 µg/mL,> 50 µg/mL,0.39 µg/mL,50 µg/mL,50 µg/mL,50 µg/mL,25 µg/mL,25 µg/mL,25 µg/mL,50 µg/mL,3.12 µg/mL,> 100 mg/kg,> 10 mg/kg,"MIC [1]: 16 µg/mL; MIC [5]: 2 µg/mL; MIC [7]: 4 µg/mL; MIC [8]: 1 µg/mL; MIC [30]: 16 µg/mL; MIC [12]: 1 µg/mL; MIC [14]: 8 µg/mL; MIC [16, 31]: > 50 µg/mL; MIC [18, 31]: > 50 µg/mL; MIC [19]: 0.78 µg/mL; MIC (Mycoplasma hyorhinis 29E): 50 µg/mL; MIC (Mycoplasma synoviae 40A): 3.12 µg/mL"
